In patent US6503943B1, “Platinum complex, its preparation and therapeutic application” (priority 1998, dated 2003):
Several values for one entry are separate records, joined by “and”; a condition that tells them apart may be missing. Equal values may be shown once.

How the values were obtained:
leucaemia L1210 [1] = experiment: Antitumor effect at animals with leucaemia L1210, single administration (Example 4); format: in vivo, mice DBA2; conditions: mouse, in vivo
leucaemia L1210 [2] = experiment: Antitumor effect at animals with leucaemia L1210, intermitent administration 3x (Example 5); format: in vivo, mice DBA2; conditions: for Survival (in % of control) / Survival time, Geom. mean: 1st, 5th and 9th day
leucaemia L1210 [3] = experiment: Antitumor effect at animals with leucaemia L1210, continual versus intermitent regimen (Example 6); format: in vivo, mice DBA2
leucaemia L1210 [4] = experiment: Antitumor effect at animals with leucaemia L1210, continual regimen (Example 7); format: in vivo, mice DBA2; conditions: for Survival (in % of control) / Survival time, Geom. mean: 1th-9th day
Gardner lymphosarcoma = experiment: Antitumor effect at animals with solid form of Gardner lymphosarcoma (Example 8); format: in vivo, mice C3H; conditions: 5th day, tumors weighed 14th day
[5] = system: mammal adenocarcinoma MC2111; experiment: Antitumor effect at animals with solid form of mammal adenocarcinoma MC2111 (Example 9); format: in vivo, mice DBA1; conditions: for Tumor mass (%) of control / Tumor mass, Arithm. mean: 5th-13 day, tumor size 14th day, mass from regression
[6] = system: ascitic form of Ehrlich tumor (ATE); experiment: Antitumor effect at animals with ascitic form of Ehrlich tumor (ATE) (Example 10); format: in vivo, mice ICR; conditions: for Survival (in % of control) / Survival time, Geom. mean / Tumor mass (%) of control / Tumor mass, Arithm. mean: 1st-9th day; for Tumor mass (%) of control / Tumor mass, Arithm. mean: dissection 10th day
[7] = system: ascitic form of Ehrlich tumor (ATE); experiment: Antitumor effect at animals with ascitic form of Ehrlich tumor (ATE) (Example 11);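 for all read-outs here: half of each dose group killed on day 10, tumor mass taken as animal mass lost on ascites aspiration, ascitocrit by microhematocrit centrifuge, rest followed daily for survival versus reference group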; conditions: for Survival (in % of control) / Survival time, Geom. mean / Total ascitocrit (%) of control / Total ascitocrit (mass of cell fraction of a tumor), Arithm. mean / Tumor mass (%) of control / Tumor mass, Arithm. mean: 1th-9th day; for Total ascitocrit (%) of control / Total ascitocrit (mass of cell fraction of a tumor), Arithm. mean / Tumor mass (%) of control / Tumor mass, Arithm. mean: dissection 10th day
Protocol: After termination of application, one half of animals in each dosage group was destroyed at 10th day after inoculation in ether narcosis, the ascits were sucked out after laparotomy and the mass of a tumor at each of the animals was determined from the difference of mass before and after sucking out the ascit. Ascitocrit in ascitic liquor of single animals was determined on microhematocrit centrifuge in heparinized capillary tubes of 75 mm length. The value of “total ascitocrit”corresponding to a mass of cells in ascitic liquor has been determined from percentage of ascitocrit and mass of the tumor. Remaining animals were left for monitoring the survival time. In these animals, the survival time was monitored on daily basis. The dependence of the survival time value on the applied dose was evaluated in comparison with the reference group.
The single estimated time points as biological responses were evaluated by a test of equivalence of two mean values (Student's t-test). Geometric mean was calculated from single values of survival time, arithmetic means were calculated from single values of tumor mass and total ascitocrit. Difference between mean values was evaluated by a test of equivalence of two mean values (Student's t-test) under presumption of normal probability distribution of mass values as well as of total ascitocrit values and of logarithmic/normal distribution of temporal values, all under presumption of possible unknown disseminations. Those diferences in mean values, whose values of a test criterium exceeded the critical value at the 5% and 1% significance level were evaluated as statistically significant and highly statistically significant, respectively.
The optimum dosage has been calculated from values of survival time according to the proportional risk model of Cox (Carter et al., 1982). Parameters of Weinbull distribution and logarithmic transformation of introductory data were used for estimation of a basic and modified survival function from experimental data.

[8] = 9 mg/kg/day p.o. 3x, 1,5,9th day (lowest dose group)
[9] = 12 mg/kg/day p.o. 9x, 1-9th day
[10] = 18 mg/kg/day p.o. 3x, 1,5,9th day
[11] = 36 mg/kg/day p.o. 3x, 1,5,9th day

With `CC(=O)[O-].CC(=O)[O-].N.NC12CC3CC(CC(C3)C1)C2.[Cl-].[Cl-].[Pt+4]` [LA-12, Af-bis (Acetato)-b-(1-Adamantylamine)-c-ammin-de-dichloroplatinum (IV) Complex] the “Increase of mean value of survival time in comparison with the untreated control group” value (leucaemia L1210 [1]) was 55%, the “Survival (in % of control)” value (leucaemia L1210 [2]; 2 mg/kg/day p.o. 3x) was over 121% and the “Survival time, Geom. mean” value (leucaemia L1210 [2]; 2 mg/kg/day p.o. 3x) was 19.0 days. For the same molecule, the “Survival (in % of control)” value (leucaemia L1210 [2]; 4 mg/kg/day p.o. 3x) was 147%, the “Survival time, Geom. mean” value (leucaemia L1210 [2]; 4 mg/kg/day p.o. 3x) was 23.0 days and the “Survival (in % of control)” value (leucaemia L1210 [2]; 4 mg/kg/day p.o. 3x, listed as LA-] 2) was 148%. The “Survival (in % of control)” value (leucaemia L1210 [2]; 8 mg/kg/day p.o. 3x) was 118%, the “Survival time, Geom. mean” value (leucaemia L1210 [2]; 8 mg/kg/day p.o. 3x) was 18.5 days and the “Optimum dose as calculated according to Carter” value (leucaemia L1210 [2]; intermitent oral administration 3x) was 4.55 mg/kg/day p.o.×3. For the same molecule, the “Survival (in % of control)” value (leucaemia L1210 [3]; 3 mg/kg/day p.o. 9x, 1-9th day) was 96%, the “Survival time, Geom. mean” value (leucaemia L1210 [3]; 3 mg/kg/day p.o. 9x, 1-9th day) was 11.1 days and the “Increase of survival time value in comparison with the control group” value (leucaemia L1210 [3]; 6 mg/kg p.o.×9) was 130%. The “Survival (in % of control)” value (leucaemia L1210 [3]; 6 mg/kg/day p.o. 9x, 1-9th day) was 230%, the “Survival time, Geom. mean” value (leucaemia L1210 [3]; 6 mg/kg/day p.o. 9x, 1-9th day) was 16.6 days and the “Survival (in % of control)” value (leucaemia L1210 [3]; [8]) was 115%. The “Survival time, Geom. mean” value (leucaemia L1210 [3]; [8]) was 13.3 days, the “Survival (in % of control)” value (leucaemia L1210 [3]; [9]) was 118% and the “Survival time, Geom. mean” value (leucaemia L1210 [3]; [9]) was 13.6 days. The “Survival (in % of control)” value (leucaemia L1210 [3]; [10]) was 158%, the “Survival time, Geom. mean” value (leucaemia L1210 [3]; [10]) was 18.3 days and the “Survival (in % of control)” value (leucaemia L1210 [3]; [11]) was 137%. The “Survival time, Geom. mean” value (leucaemia L1210 [3]; [11]) was 15.9 days, the “Evaluation of antitumor effect (survival time versus control), in words” value (leucaemia L1210 [3]; LA-12 6 mg/kg p.o.×9, Platidiam 8 and 4 mg/kg s.c.×1, LA-2 any of the dosage groups) was “antitumor effective” and the “Survival (in % of control)” value (leucaemia L1210 [4]; 3 mg/kg/day p.o. 9x) was 198%. The “Survival time, Geom. mean” value (leucaemia L1210 [4]; 3 mg/kg/day p.o. 9x) was 44.6 days, the “Survival (in % of control)” value (leucaemia L1210 [4]; 6 mg/kg/day p.o. 9x) was 172% and the “Survival time, Geom. mean” value (leucaemia L1210 [4]; 6 mg/kg/day p.o. 9x) was 38.8 days. The “Survival (in % of control)” value (leucaemia L1210 [4]; 12 mg/kg/day p.o. 9x) was 210%, the “Survival time, Geom. mean” value (leucaemia L1210 [4]; 12 mg/kg/day p.o. 9x) was 47.2 days and the “Evaluation of antitumor effect (survival time versus control), in words” value (leucaemia L1210 [4]; in the dosages used, p.o.×9) was “antitumor effective”. The “Increase of survival time value in comparison with the control group” value (leucaemia L1210 [4]; in the dosages used, p.o.×9) was 130%, the “Tumor mass (%) of control” value (Gardner lymphosarcoma; 2 mg/kg p.o. 1x) was 80% and the “Tumor mass, Arithm. mean” value (Gardner lymphosarcoma; 2 mg/kg p.o. 1x) was 5.02 g. For the same molecule, the “Tumor mass (%) of control” value (Gardner lymphosarcoma; 8 mg/kg p.o. 1x) was 88%, the “Tumor mass, Arithm. mean” value (Gardner lymphosarcoma; 8 mg/kg p.o. 1x) was 5.46 g and the “Tumor mass (%) of control” value (Gardner lymphosarcoma; 32 mg/kg p.o. 1x) was 77%. The “Tumor mass, Arithm. mean” value (Gardner lymphosarcoma; 32 mg/kg p.o. 1x) was 4.80 g, the “Tumor mass (%) of control” value ([5]; 3 mg/kg/day p.o. 9x) was 86% and the “Tumor mass, Arithm. mean” value ([5]; 3 mg/kg/day p.o. 9x) was 4.02 g. The “Tumor mass (%) of control” value ([5]; 6 mg/kg/day p.o. 9x) was 80%, the “Tumor mass, Arithm. mean” value ([5]; 6 mg/kg/day p.o. 9x) was 3.73 g and the “Tumor mass (%) of control” value ([5]; 12 mg/kg/day p.o. 9x) was 87%. The “Tumor mass, Arithm. mean” value ([5]; 12 mg/kg/day p.o. 9x) was 4.05 g, the “Survival (in % of control)” value ([5]; mouse, in vivo) was 116% and 117% and the “Survival time, Geom. mean” value ([5]; mouse, in vivo) was 25.1 days and 25.3 days and 27.7 days. The “Evaluation of antitumor effect, in words” value ([5]; p.o.×9 12, 6, 3 mg/kg/day, Platidiam 8 and 4 mg/kg s.c. once) was “antitumor effective”, the “Survival (in % of control)” value ([6]; 3 mg/kg/day p.o. 9x) was 157% and the “Survival time, Geom. mean” value ([6]; 3 mg/kg/day p.o. 9x) was 18.0 days. For the same molecule, the “Tumor mass (%) of control” value ([6]; 3 mg/kg/day p.o. 9x) was 104%, the “Tumor mass, Arithm. mean” value ([6]; 3 mg/kg/day p.o. 9x) was 2.76 g and the “Survival (in % of control)” value ([6]; 6 mg/kg/day p.o. 9x) was 219%. The “Survival time, Geom. mean” value ([6]; 6 mg/kg/day p.o. 9x) was 25.1 days, the “Tumor mass (%) of control” value ([6]; 6 mg/kg/day p.o. 9x) was 100% and the “Tumor mass, Arithm. mean” value ([6]; 6 mg/kg/day p.o. 9x) was 2.66 g. For the same molecule, the “Survival (in % of control)” value ([6]; 12 mg/kg/day p.o. 9x) was 135%, the “Survival time, Geom. mean” value ([6]; 12 mg/kg/day p.o. 9x) was 15.5 days and the “Tumor mass (%) of control” value ([6]; 12 mg/kg/day p.o. 9x) was 84%. For the same molecule, the “Tumor mass, Arithm. mean” value ([6]; 12 mg/kg/day p.o. 9x) was 2.23 g, the “Significance of mean survival time increase in comparison with untreated control (p≦0.01), in words” value ([6]; Tab. 7-2) was “atatistically highly significant” and the “Survival (in % of control)” value ([7]; 3 mg/kg/day p.o. 9x) was 143%. The “Survival time, Geom. mean” value ([7]; 3 mg/kg/day p.o. 9x) was 12.7 days, the “Total ascitocrit (%) of control” value ([7]; 3 mg/kg/day p.o. 9x) was 100% and the “Total ascitocrit (mass of cell fraction of a tumor), Arithm. mean” value ([7]; 3 mg/kg/day p.o. 9x) was 0.68 g. For the same molecule, the “Tumor mass (%) of control” value ([7]; 3 mg/kg/day p.o. 9x) was 110%, the “Tumor mass, Arithm. mean” value ([7]; 3 mg/kg/day p.o. 9x) was 4.32 g and the “Survival (in % of control)” value ([7]; 6 mg/kg/day p.o. 9x) was 153%. For the same molecule, the “Survival time, Geom. mean” value ([7]; 6 mg/kg/day p.o. 9x) was 13.6 days, the “Total ascitocrit (%) of control” value ([7]; 6 mg/kg/day p.o. 9x) was 99% and the “Total ascitocrit (mass of cell fraction of a tumor), Arithm. mean” value ([7]; 6 mg/kg/day p.o. 9x) was 0.68 g. For the same molecule, the “Tumor mass (%) of control” value ([7]; 6 mg/kg/day p.o. 9x) was 78%, the “Tumor mass, Arithm. mean” value ([7]; 6 mg/kg/day p.o. 9x) was 3.07 g and the “Survival (in % of control)” value ([7]; 12 mg/kg/day p.o. 9x) was 134%. The “Survival time, Geom. mean” value ([7]; 12 mg/kg/day p.o. 9x) was 11.9 days, the “Total ascitocrit (%) of control” value ([7]; 12 mg/kg/day p.o. 9x) was 64% and the “Total ascitocrit (mass of cell fraction of a tumor), Arithm. mean” value ([7]; 12 mg/kg/day p.o. 9x) was 0.44 g. The “Tumor mass (%) of control” value ([7]; 12 mg/kg/day p.o. 9x) was 47%, the “Tumor mass, Arithm. mean” value ([7]; 12 mg/kg/day p.o. 9x) was 1.86 g and the “Evaluation of antitumor effect (survival time versus control), in words” value ([7]; p.o.×9, Platidiam 8 and 4 mg/kg s.c.×1, Tab. 8.1) was “didnot increase the survival time statistically significant”.
